{"source": "patent US8309768B2", "about": "“FTY720-derived anticancer agents” (The Ohio State University Research Foundation, priority 2010, dated 2012)", "key": {"human recombinant SphK2": {"target": "T1, human recombinant SphK2 (Homo sapiens, UniProt Q9NRA0)", "T1 construct": "purchased Cayman", "T1 sequence (Q9NRA0 1-654)": "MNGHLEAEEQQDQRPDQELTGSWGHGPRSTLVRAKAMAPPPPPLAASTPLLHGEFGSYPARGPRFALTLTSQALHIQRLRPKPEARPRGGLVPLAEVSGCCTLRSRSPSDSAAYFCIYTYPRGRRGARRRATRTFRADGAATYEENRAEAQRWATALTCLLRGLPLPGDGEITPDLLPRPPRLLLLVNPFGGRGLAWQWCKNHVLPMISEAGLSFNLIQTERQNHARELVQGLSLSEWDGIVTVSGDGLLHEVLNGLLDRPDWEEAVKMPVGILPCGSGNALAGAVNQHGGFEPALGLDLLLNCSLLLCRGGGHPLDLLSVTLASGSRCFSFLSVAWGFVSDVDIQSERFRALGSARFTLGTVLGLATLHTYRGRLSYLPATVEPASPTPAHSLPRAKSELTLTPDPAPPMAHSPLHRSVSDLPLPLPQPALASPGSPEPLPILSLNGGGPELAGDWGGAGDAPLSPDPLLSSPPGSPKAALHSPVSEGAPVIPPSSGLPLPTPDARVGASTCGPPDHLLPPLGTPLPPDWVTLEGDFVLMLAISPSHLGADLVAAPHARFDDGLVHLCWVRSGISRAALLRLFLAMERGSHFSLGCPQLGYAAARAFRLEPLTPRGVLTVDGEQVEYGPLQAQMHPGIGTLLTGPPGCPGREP", "test": "Phosphorylation of FTY720 and OSU-2S by SphK2 (radiometric, TLC)", "format": "biochemical", "details": "5 μM compound, [γ-32P]-ATP, 37° C., 60 min, TLC/autoradiography", "procedure": "Phosphorylation of FTY720 and OSU-2S by SphK2. Analysis of SphK2-mediated phosphorylation was performed as reported with modifications. Prieschl […] J Exp Med, 190, 1-8 (1999). Briefly, 5 μM FTY720 or OSU-2S was incubated with 0.75 μg/ml human recombinant SphK2 (Cayman), 5 μCi [γ-^32P]-ATP, and 0.5 mM cold ATP at 37° C. for 60 min. The reaction products were separated by silica-gel thin layer chromatography (TLC) and visualized by autoradiography."}, "[1]": {"target": "T2, S1P1 receptor-overexpressing Huh7 cells (Homo sapiens, UniProt P21453)", "T2 construct": "expressed in transfected cells", "T2 sequence (P21453 whole entry)": "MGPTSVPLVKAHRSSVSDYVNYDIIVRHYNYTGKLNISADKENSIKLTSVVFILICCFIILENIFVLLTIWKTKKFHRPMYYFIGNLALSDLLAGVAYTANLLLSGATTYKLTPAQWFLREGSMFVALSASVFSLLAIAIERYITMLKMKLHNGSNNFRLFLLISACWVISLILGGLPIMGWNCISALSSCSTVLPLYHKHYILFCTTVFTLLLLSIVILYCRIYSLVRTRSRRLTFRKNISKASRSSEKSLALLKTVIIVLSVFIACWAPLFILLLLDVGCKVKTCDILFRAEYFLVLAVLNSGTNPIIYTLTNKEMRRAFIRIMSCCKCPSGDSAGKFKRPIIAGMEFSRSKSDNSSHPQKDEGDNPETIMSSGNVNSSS", "test": "Immunocytochemical analysis of S1P1 receptor internalization", "format": "cell-based", "details": "immunocytochemistry", "protocol": "Immunocytochemistry. Immunocytochemical analysis of S1P1 internalization and PKCδ nuclear translocation were performed as described. […] Briefly, treated cells were washed, fixed with 4% paraformaldehyde, and permeabilized with 0.1% Triton X-100. After blocking with 2% FBS, cells were incubated with rabbit anti-S1P1 or rabbit anti-PKCδ antibodies (1:200 dilution, 4° C., 24 h), followed by Alexa Fluor 488-conjugated goat anti-rabbit IgG (room temperature, 1 h). Nuclei were counterstained with a 4,6-diamidino-2-phenylindole (DAPI)-containing mounting medium (Vector Laboratories, Burlingame, Calif.)."}, "Hep3B cells": {"tested_on": "Hep3B cells", "test": "MTT cell viability assay, Hep3B", "format": "cell-based", "details": "Homo sapiens, 24 h of treatment", "procedure": "Cell lines, culture and reagents. The HCC cell lines Hep3B, PLC5 and Huh7, as well as primary nonmalignant human hepatocytes were used in this study. Cancer cells were cultured in Dulbecco's Modified Eagle's medium (DMEM) supplemented with 10% fetal bovine serum (FBS). Hepatocytes were maintained in defined Hepatocyte Culture Medium. […] Various polyclonal and monoclonal antibodies were used for western blotting, immunocytochemical, and flow cytometric analyses.\nCell viability assay. Cell viability was assessed by 3-(4,5-dimethylthiazol-2-yl)-2,5-diphenyl-2H-tetrazolium bromide (MTT) assays in six replicates. Cells were seeded (4,000 cells/well; 96-well plate) for 24 h and treated with test agents in 5% FBS-supplemented DMEM. After treatment, cells were incubated in medium containing 0.5 mg/ml MTT (37° C., 2 h). Reduced MTT was dissolved in DMSO (200 μL/well) and absorbances measured at 570 nm."}, "[2]": {"tested_on": "Hep3B, Huh7, and PLC5 cells", "test": "ROS production by flow cytometry with DCFDA", "format": "cell-based", "details": "1 h of treatment", "procedure": "Flow cytometry. For assessment of apoptosis, treated cells were stained with Annexin V-Alexa Fluor 488 and propidium iodide according to the vendor's protocols (Molecular Probes). For caspase-3 activity, cells were incubated with the fluorogenic caspase-3 substrate (Ac-DMQD)-2-Rh110 for 20 min. ROS production was detected using the fluorescence probe 5-(and-6)-carboxy-2′,7′-dichlorodihydrofluorescein diacetate (DCFDA) as described. Hung et al., Cancer Res., 68, 1204-1212 (2008). Data were analyzed by ModFitLT V3.0 software program."}, "[3]": {"tested_on": "PTEN, p53, Mcl-1 in Huh7 cells", "test": "Western blot of signaling markers in drug-treated Huh7 cells", "format": "cell-based", "details": "24 h", "procedure": "Immunoblotting. Immunoblotting of biomarkers in cell lysates and tumor tissue homogenates was carried out according to a published procedure. Hung et al., Cancer Res., 68, 1204-1212 (2008)."}, "[4]": {"tested_on": "subcutaneous Hep3B tumors", "test": "Ectopic (subcutaneous) Hep3B xenograft tumor model", "format": "in vivo, athymic nude mice", "procedure": "Xenograft tumor models. Ectopic tumors were established in athymic nude mice by subcutaneous injection of 1×10^6 Hep3B cells in a total volume of 0.1 ml of serum-free medium containing 50% Matrigel. Mice with established tumors were randomized to five groups (n=8) that received daily i.p. injections of OSU-2S or FTY720 at 5 or 10 mg/kg, or the vehicle. Tumor burdens were determined weekly using calipers (volume=width^2×length×0.52). Body weights were measured weekly. At the study endpoint, tumors were harvested, snap-frozen and stored at −80° C. for biomarker analysis. Blood and tissues were collected for evaluation of complete blood counts, serum chemistry and histopathology."}, "[5]": {"target": "T3, PP2A (Serine/Threonine Phosphatase 2A) (Homo sapiens, UniProt P67775)", "T3 construct": "endogenous in cells; host or cells: primary CLL cells; Ramos cells", "T3 sequence (P67775 whole entry)": "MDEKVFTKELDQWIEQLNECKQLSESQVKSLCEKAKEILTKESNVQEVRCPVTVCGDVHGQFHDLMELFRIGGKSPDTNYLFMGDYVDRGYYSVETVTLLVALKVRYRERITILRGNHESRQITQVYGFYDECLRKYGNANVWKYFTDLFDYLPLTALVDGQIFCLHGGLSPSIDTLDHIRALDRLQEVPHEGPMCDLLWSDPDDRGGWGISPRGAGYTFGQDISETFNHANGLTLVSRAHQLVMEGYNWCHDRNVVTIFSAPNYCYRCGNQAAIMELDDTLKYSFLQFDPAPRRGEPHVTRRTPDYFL", "test": "PP2A functional enzymatic assay (malachite green) in primary CLL cells", "format": "cell-based", "details": "24 hrs, OSU-2S 8 μM, untreated about 0.07", "procedure": "The ability of OSU-2S to induce PP2A (Serine/Threonine Phosphatase 2A) activity in primary CLL cells was measured at 24 hrs by a functional enzymatic assay. Lysates made from OSU-2S 8 μM treated cells are used to immunoprecipitate PP2Ac which was then used as an enzyme to cleave the specific phosphor-peptide substrate in the functional assay. The cleaved free phosphates were measured by adding malachite green detection solutions and measuring the absorbance at A650 nm. Ramos cells were also included, and FTY720 was used as the control."}, "CLL cells": {"tested_on": "CLL cells", "test": "ROS induction in CLL cells (dihydroethidium staining)", "format": "cell-based", "details": "8 μM, untreated about 40%", "procedure": "The induction of Reactive Oxygen Species (ROS) in CLL cells by OSU-2S was detected by staining OSU-2S 8 μM treated CLL cells with dihyroethidium. The ROS in the cells oxidizes DHE to ethidium staining the nucleus with a bright red fluorescence detected by flow cytometer. A hydrogen peroxide solution was used as a control."}}, "data": [{"compound": "CCC[C@@](N)(CO)CCc1ccc(OCCCCCC(C)C)cc1", "note": "[OSU-2S, (S)-2-amino-2-(4-[(6-methylheptyl)-oxy]phenethyl)pentan-1-ol]", "values": [{"measurement": "phosphorylation by recombinant SphK2", "setting": "human recombinant SphK2", "result": "not phosphorylated"}, {"measurement": "S1P1 receptor internalization and clustering in the cytoplasm", "setting": "[1]", "result": "failed to show any appreciable effect"}, {"measurement": "IC50", "setting": "Hep3B cells", "result": 2.4, "unit": "µM"}, {"measurement": "ROS production", "setting": "[2]", "result": "to a greater extent than FTY720"}, {"measurement": "effect on expression levels of PTEN, p53, or Mcl-1", "setting": "[3]", "result": "neither OSU-2S nor FTY720 had an appreciable effect"}, {"measurement": "ectopic Hep3B tumor growth vs vehicle control", "setting": "[4]; 5 mg/kg, i.p. once daily, P<0.001", "result": "completely suppressed"}, {"measurement": "reduction of tumor volume", "setting": "[4]; 10 mg/kg i.p. daily, end of 42-day treatment", "result": "more than 50%"}, {"measurement": "intratumoral biomarkers of drug activity", "setting": "[4]; Hep3B tumor tissue homogenates, Western blot", "result": "PKCδ and caspase-3 were activated"}, {"measurement": "PP2A activity, absorbance at A650 nm", "setting": "[5]", "result": "about 0.20"}, {"measurement": "DHE positive cell %", "setting": "CLL cells", "result": "about 70%"}]}]}
